In brackets after ≈: the same amount, converted by molar mass.
conditions: buffer; pH 7.4; 200.0 µM

SMILES | solubility kinetic
COc1ccccc1NC(=O)c1ccccc1NC(=O)c1cccs1 | < 0.4 µg/mL
COc1ccc(OCC(=O)Nc2ccc3nc(C)sc3c2)cc1 | 15.8 µg/mL (≈ 48.1 µM)
CCCCNC(=O)c1ccccc1SCc1c(C)noc1C | > 47.8 µg/mL
CN(C)CCNC(=O)Nc1ccc(F)cc1F | > 36.5 µg/mL
CCNc1nc(SC(C)C(=O)OC)nc(N(C)C)n1 (centres undefined) | 30 µg/mL (≈ 105 µM)
O=C(NC1CCCCC1)c1ccc(-c2ccc(Cl)cc2)o1 | < 0.7 µg/mL
CC(C)CCN1C(=O)C2(OCCCO2)c2cc(Cl)ccc21 | 3 µg/mL (≈ 9.68 µM)
CCOC(=O)c1ccc(NCc2cccnc2)cc1 | > 38.4 µg/mL
CCc1ccc(NC(=O)C(=O)NCc2ccccn2)cc1 | 16.1 µg/mL (≈ 56.8 µM)
N=c1oc2ccccc2cc1C(=O)NCc1ccccc1 | 6.7 µg/mL (≈ 24.1 µM)
COc1cccc(NC(=S)NC(=O)/C=C/c2ccco2)c1 | 11.2 µg/mL (≈ 37 µM)
CCOCCn1c(SC(C)C(C)=O)nc2c1c(=O)[nH]c(=O)n2C (centres undefined) | > 51.1 µg/mL
O=C(O)C1CCCCN1C(=O)c1cc2c(s1)CCCCC2 (centres undefined) | > 46.1 µg/mL
CCCc1nnc(NC(=O)C2CC(=O)N(CCc3ccc(F)cc3)C2)s1 (centres undefined) | > 56.5 µg/mL
O=S(=O)(/N=C(/Nc1cccnc1Cl)c1ccccc1)c1ccccc1 | > 55.8 µg/mL
O=C(c1cc2cc([N+](=O)[O-])ccc2s1)N1CCOCC1 | 16.2 µg/mL (≈ 55.4 µM)
CC1CCN(C2=NC(=O)/C(=C/c3ccc(O)cc3)S2)CC1 | 3.8 µg/mL (≈ 12.6 µM)
Clc1ccc(-c2cn3ccccc3n2)cc1 | 2.5 µg/mL (≈ 10.9 µM)
CCc1cc(C(=O)O)c(NC(=O)/C=C/c2ccc(OC)cc2)s1 | > 49.7 µg/mL
O=C(Nc1nc2ccccc2[nH]1)c1ccc(OC(F)F)cc1 | 2.4 µg/mL (≈ 7.91 µM)
O=C(Nc1ncccc1O)c1ccc(Oc2ccccc2)cc1 | > 45.9 µg/mL
Nc1n[nH]c(N)c1N=Nc1ccc(F)cc1 | > 33 µg/mL
COC(=O)N1CCN(c2ccc(C)c(C)c2)CC1 | 32.1 µg/mL (≈ 129 µM)
O=c1[nH]c(O)c(C=Nc2ccc(Cl)c(C(F)(F)F)c2)c(=O)[nH]1 | 1.7 µg/mL (≈ 5.1 µM)

SMILES | solubility kinetic
Cc1ccc2nc(NC(=O)CC3Oc4ccccc4NC3=O)sc2c1 (centres undefined) | 3.8 µg/mL (≈ 10.8 µM)
O=C(COc1ccccc1)NS(=O)(=O)c1ccc(Cl)cc1 | > 48.9 µg/mL
CNC(=O)c1ccccc1-c1cn(C)c2ccccc2c1=O | > 43.9 µg/mL
COc1ccccc1N(CC(=O)N1CCOCC1)S(C)(=O)=O | > 49.3 µg/mL
O=C(c1cc(-c2ccccc2)on1)N1CCC2(CC1)OCCO2 | > 47.2 µg/mL
CC1CCN(c2ccc([N+](=O)[O-])c(SCCO)c2)CC1 | 28.4 µg/mL (≈ 95.8 µM)
CC(=O)c1cc(CN2CCN(C(C)C)C(CCO)C2)cs1 (centres undefined) | 35.7 µg/mL (≈ 115 µM)
COCCNC(=O)c1cc2sccc2n1C | > 35.7 µg/mL
CCOC(=O)c1ccc(S(=O)(=O)N2CCN(C(=O)c3ccccn3)CC2)cc1 | > 60.5 µg/mL
O=C(Nc1ncc(Cc2cccc(Cl)c2Cl)s1)C1CCCO1 (centres undefined) | 1.9 µg/mL (≈ 5.32 µM)
COc1cccc(CN(C)CC2CCCN(CCc3ccc(Cl)cc3)C2)c1OC (centres undefined) | 53.3 µg/mL (≈ 128 µM)
O=C(Cc1c[nH]c2ccccc12)NCc1ccccc1F | 42.3 µg/mL (≈ 150 µM)
Nc1c(N(Cc2ccccc2)C(=O)COc2ccc(F)cc2Cl)c(=O)[nH]c(=O)n1Cc1ccccc1 | 9.4 µg/mL (≈ 18.5 µM)
CCOc1ccc(S(=O)(=O)NCc2cccnc2)c2ccccc12 | 38.5 µg/mL (≈ 112 µM)
O=C(CCCc1ccccc1)Nc1ccccn1 | > 36 µg/mL
Cc1ccc(NC(=O)CCSc2nnc(C)o2)cc1 | > 41.6 µg/mL
CSc1nsc(SCC(=O)Nc2ccccc2)n1 | 32.4 µg/mL (≈ 109 µM)
CCc1cccc(NS(=O)(=O)c2c(C)[nH]c(=O)[nH]c2=O)c1 | > 46.4 µg/mL
N#Cc1c(Nc2ccc(Cl)cc2)s[nH]c1=O | > 37.8 µg/mL
CC1(C)CC(=O)N(c2cccc(C(F)(F)F)c2)C(=O)C1 | 8.1 µg/mL (≈ 28.4 µM)
Cc1ccccc1CNC(=O)Nc1ccc(Cl)cc1 | 0.3 µg/mL (≈ 1.09 µM)
CCOC(=O)C1=C(C)NC(C)=C(C(=O)OCC)C1c1cccc(C)n1 | 5.1 µg/mL (≈ 14.8 µM)
CC(C)(C)N1CSC(=S)N(Cc2ccccc2)C1 | 16.4 µg/mL (≈ 58.5 µM)
Cc1ccccc1CC(=O)N1CC(C)OC(C)C1 (centres undefined) | > 37.1 µg/mL

SMILES | solubility kinetic
NC(=O)c1cccc(-c2cccc(OC(=O)NC3CCCCC3)c2)c1 | < 0.4 µg/mL
C=C(c1ccccc1C)[n+]1ccccc1 | 22.1 µg/mL
CCc1ccc(N2CC(C(=O)Nc3ccc(F)cc3)CC2=O)cc1 (centres undefined) | 0.8 µg/mL (≈ 2.45 µM)
Cc1cccc(NCc2ccc(Br)cc2)n1 | 12 µg/mL (≈ 43.3 µM)
CN1CCN(C2CCN(c3cccc(Cl)c3)CC2)CC1CCO (centres undefined) | 36.8 µg/mL (≈ 109 µM)
CSc1ccccc1NC(=O)COC(=O)c1ccccc1O | 2 µg/mL (≈ 6.3 µM)
O=C(OCC(=O)N1CCCC1=O)C1COc2ccccc2O1 (centres undefined) | > 45.8 µg/mL
CCOC(=O)C(=CNc1ccccc1N1CCOCC1)C(=O)OCC | 45.6 µg/mL (≈ 131 µM)
COCC(=O)Nc1ccc(S(=O)(=O)Nc2nccs2)cc1 | 47 µg/mL (≈ 144 µM)
CC1CC(C)CN(c2ncnc3c2cnn3C)C1 (centres undefined) | > 36.8 µg/mL
COc1ccc(NC(=O)CC(C(=O)O)C(C)c2ccccc2)cc1 (centres undefined) | > 49.1 µg/mL
O=C(NCc1ccc(F)cc1)C1CC(=O)N(C2CCCC2)C1 (centres undefined) | > 45.7 µg/mL
COc1ccccc1N1C(=O)c2ccccc2NC1c1ccc(O)cc1 (centres undefined) | 12.8 µg/mL (≈ 37 µM)
Cc1cccc(COC(=O)C(Cc2ccccc2)NC(N)=O)c1 (centres undefined) | > 46.9 µg/mL
N/C(CS(=O)(=O)c1ccccn1)=N\OC(=O)c1ccc(Cl)cc1 | 19.1 µg/mL (≈ 54 µM)
COc1ccc(OC)c(CN2CCN(C(=O)CNC(=O)c3ccccc3F)CC2)c1 | 59.9 µg/mL (≈ 144 µM)
O=c1[nH]cnc2c1ncn2[C@@H]1O[C@H](CO)[C@@H](O)[C@H]1O | > 40.2 µg/mL
O=C(CCNC(=O)c1ccco1)Nc1ccc(Cl)cc1F | > 46.6 µg/mL
Cc1ccc2c(COC(=O)c3c(C)noc3C)cc(=O)oc2c1 | 3.1 µg/mL (≈ 9.89 µM)
CCCOc1ccc(CCCN=C(N)N)cc1Cl.O=S(=O)(O)O | 42.2 µg/mL
Cc1ccc(NC(=O)CC(=O)Nc2ccc(C)cc2)cc1 | < 0.3 µg/mL
Cc1c(OCC(F)(F)F)ccnc1CS(=O)c1nc2ccccc2[nH]1 (centres undefined) | > 55.4 µg/mL
Cc1ccc(SCC(=O)NC(=O)NC(C)C)c(C)c1 | 20 µg/mL (≈ 71.3 µM)
Cc1ccc(NC(=O)CCc2ccc(S(=O)(=O)N3CCOCC3)cc2)c(Cl)c1 | 6.1 µg/mL (≈ 14.4 µM)

SMILES | solubility kinetic
CCc1ccccc1NC(=O)CNC(=O)c1ccc(OCc2cn3ccccc3n2)cc1 | 7.6 µg/mL (≈ 17.7 µM)
CC(C)(CO)NC(=O)c1ccc2c(c1)C(=O)c1ccccc1-2 | 43.7 µg/mL (≈ 148 µM)
Cc1cc(C)c(NC(N)=S)c(C)c1 | > 29.1 µg/mL
COc1ccnc2c1c(=O)n(Cc1cccc(F)c1)c(=O)n2C | 37.9 µg/mL (≈ 120 µM)
CN(C)/C=C1\Cc2ccccc2C1=O | > 28.1 µg/mL
O=C(OCc1ccccc1Cl)c1cc([N+](=O)[O-])ccc1N1CCOCC1 | 3.4 µg/mL (≈ 9.02 µM)
Cc1onc(-c2ccccc2)c1CNC(=O)Nc1ccc(F)cc1F | 4.1 µg/mL (≈ 11.9 µM)
COc1ccc(OC)c(Nc2cc(C)c3ccccc3n2)c1 | 1.4 µg/mL (≈ 4.76 µM)
Cc1cccc(-c2nc(CNC(=O)c3ccco3)cs2)c1 | > 44.8 µg/mL
CCOC(=O)N1CCc2c(sc3[nH]c(=S)[nH]c(=S)c23)C1 | 43.1 µg/mL (≈ 132 µM)
Nc1ccc(Oc2ccc3c(c2)OCO3)cc1 | 27.3 µg/mL (≈ 119 µM)
COCCNC(=S)N1CCN(Cc2cccc(OC)c2)CC1 | 42.5 µg/mL (≈ 131 µM)
Cc1ccc(C)c2sc(NC(=O)CN3C(=O)CCC3=O)nc12 | 45.5 µg/mL (≈ 143 µM)
CN(C)c1nc(-c2cccs2)cc(C(F)(F)F)c1C#N | 0.3 µg/mL (≈ 1.01 µM)
COc1ccc(CC(=O)O/N=C(\N)c2ccncc2)cc1 | 39.9 µg/mL (≈ 140 µM)
COc1ccccc1CC(=O)Nc1ccc2c(c1)OC1(CCCC1)O2 | 35.7 µg/mL (≈ 105 µM)
CCCCC(=O)NC1(C(F)(F)F)NC(=O)N(C)C1=O (centres undefined) | > 42.2 µg/mL
COc1ccc(Cl)cc1NS(=O)(=O)c1cccc(C(=O)NC2CC2)c1 | > 57.1 µg/mL
O=C1CC(c2ccc(F)cc2)CC2=C1C=Nc1ccccc1N2 (centres undefined) | 0.7 µg/mL (≈ 2.29 µM)
Cc1ccc(C)c(N(CC(=O)NC2CCCC2)S(=O)(=O)c2ccccc2)c1 | < 0.4 µg/mL
CCOc1ccc(Cc2c(C)[nH]c3ccc(C(=O)O)cc3c2=S)cc1 | 36.2 µg/mL (≈ 102 µM)
CCOC(=O)COc1cc([N+](=O)[O-])cc2cccnc12 | > 41.4 µg/mL
Cc1ccc(/C=C2\C(=O)NC(=O)N2C)o1 | 21.4 µg/mL (≈ 104 µM)
Cc1cc(=O)oc(C)c1C(=O)Nc1cccnc1Cl | > 41.8 µg/mL

SMILES | solubility kinetic
CCOC(=O)CNC(=O)N1CCCC(N(C)CCc2ccccc2)C1 (centres undefined) | > 52.1 µg/mL
CSc1sc(C(=O)Nc2ccc(F)cc2F)c2c1C=CCC2 | 2.9 µg/mL (≈ 8.59 µM)
Cc1ccc(CSC2=NCCN2C(=O)C(C)Oc2ccccc2)cc1 (centres undefined) | 4.4 µg/mL (≈ 12.4 µM)
N/C(=N/[N+](=O)[O-])N1CCN(C(=O)Oc2ccc([N+](=O)[O-])cc2)CC1 | > 50.7 µg/mL
Cc1cc(C)c(C#N)c(N2CCN(c3ccc(F)cc3)CC2)n1 | < 0.2 µg/mL
Cc1nc2oc3ccc(F)cc3c(=O)c2cc1C(=O)O | 40.8 µg/mL (≈ 149 µM)
Cc1cccc(C(=O)OCC(=O)NCc2ccco2)c1 | > 41 µg/mL
O=C(O)C1CCN(C(=O)c2cc(F)cc3c2OCOC3)CC1 | > 46.4 µg/mL
CCCCCNC(=O)C1c2ccccc2Oc2ccccc21 | < 0.6 µg/mL
O=C(NCCS(=O)(=O)N1CCCC1)c1ccccc1 | > 42.4 µg/mL
COc1ccc(-c2cc(C(=O)NN3CCOCC3)c3ccccc3n2)cc1OC | > 59 µg/mL
Cc1c(-c2nc(-c3cccnc3)no2)cccc1[N+](=O)[O-] | 2 µg/mL (≈ 7.09 µM)
COc1ccc2[nH]c(C(=O)N3CCN(C)CC3)c(C)c2c1 | > 43.1 µg/mL
Cc1ccsc1C(=O)OCC(=O)NC1CC1 | > 35.9 µg/mL
Nc1nc(Nc2ccccc2)nc(N2CCCC2)c1[N+](=O)[O-] | 27.6 µg/mL (≈ 91.9 µM)
Cc1nn(-c2ccccc2)c(N)c1N=O | > 30.3 µg/mL
Cc1ccccc1N1CC(C(=O)NC2CCCC2)CC1=O (centres undefined) | > 43 µg/mL
O=C(N/C(=C/c1ccco1)C(=O)N1CCc2ccccc21)c1ccco1 | 4.4 µg/mL (≈ 12.6 µM)
CCn1c(=O)c(C(=O)NCc2ccc(F)cc2)c(O)c2ccccc21 | < 0.4 µg/mL
COc1ccc(NC(=O)C(Cc2ccccc2)n2cccc2)cc1 (centres undefined) | 26.5 µg/mL (≈ 82.7 µM)
CC(C)=CCN1CCN(Cc2c[nH]c3ccccc23)CC1CCO (centres undefined) | > 49.1 µg/mL
CC(C)C(C)N(Cc1cccc(C(=O)O)c1)C(=O)c1ccc2ccccc2n1 (centres undefined) | 31.7 µg/mL (≈ 84.2 µM)
Cc1noc(C)c1COc1ccc(C(=O)N2CCCC(C(N)=O)C2)cc1 (centres undefined) | > 53.6 µg/mL

Source: PubChem BioAssay AID1996
